Results published in ChEMBL document CHEMBL4020846 (J Med Chem, 2018).
The source made the active and inactive calls. The rule behind the calls is not given here.

Experiments:
[1] = Drug metabolism in HEK293 cells assessed as retention time at 2 uM by LC-MS analysis; assay type: ADME, cell-based; details: human, hek293, 2 µM
[2] = Cytotoxicity against HEK-Blue cells over-expressing NOD2 assessed as residual metabolic activity at 20 uM after 18 hrs by CellTiter 96 aqueous one solution cell proliferation assay relative to control; assay type: ADME, cell-based; details: human, read-out: Activity
[3] = biological target: T1, Nucleotide-binding oligomerization domain-containing protein 1 (Homo sapiens) (UniProt Q9Y239); assay: Agonist activity at human NOD1 expressed in HEK-Blue cells assessed as induction of NF-kB transcriptional activity at 20 uM after 18 hrs by SEAP reporter gene assay; assay type: cell-based
T1 sequence (whole entry): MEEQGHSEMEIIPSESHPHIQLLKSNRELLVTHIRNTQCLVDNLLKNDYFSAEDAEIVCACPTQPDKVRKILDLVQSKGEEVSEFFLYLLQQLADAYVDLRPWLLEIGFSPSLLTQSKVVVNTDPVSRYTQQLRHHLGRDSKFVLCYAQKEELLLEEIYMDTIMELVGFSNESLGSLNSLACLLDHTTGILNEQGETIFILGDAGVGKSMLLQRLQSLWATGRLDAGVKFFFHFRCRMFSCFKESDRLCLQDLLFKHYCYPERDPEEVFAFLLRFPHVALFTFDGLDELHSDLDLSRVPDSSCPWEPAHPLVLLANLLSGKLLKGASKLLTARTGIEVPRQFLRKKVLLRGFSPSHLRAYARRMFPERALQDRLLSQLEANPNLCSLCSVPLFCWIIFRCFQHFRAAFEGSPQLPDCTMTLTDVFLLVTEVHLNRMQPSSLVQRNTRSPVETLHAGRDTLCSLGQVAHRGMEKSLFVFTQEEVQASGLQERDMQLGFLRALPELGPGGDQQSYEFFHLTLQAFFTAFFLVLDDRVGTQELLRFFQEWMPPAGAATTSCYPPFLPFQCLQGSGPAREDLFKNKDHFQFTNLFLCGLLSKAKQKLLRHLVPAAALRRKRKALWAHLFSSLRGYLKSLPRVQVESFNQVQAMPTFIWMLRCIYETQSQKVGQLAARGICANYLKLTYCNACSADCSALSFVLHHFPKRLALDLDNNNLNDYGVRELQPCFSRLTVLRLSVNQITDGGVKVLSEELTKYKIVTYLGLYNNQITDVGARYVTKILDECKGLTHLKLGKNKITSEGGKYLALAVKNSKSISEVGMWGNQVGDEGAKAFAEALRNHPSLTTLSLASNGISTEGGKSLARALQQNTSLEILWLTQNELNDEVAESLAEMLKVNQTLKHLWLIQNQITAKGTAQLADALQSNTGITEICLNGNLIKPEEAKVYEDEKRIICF

[4] = Stability in HEK293 cells at 2 uM up to 18 hrs by LC-MS analysis; assay type: ADME, cell-based; details: human, hek293, 18 h
[5] = Drug uptake in HEK293 cells cytosol at 2 uM after 18 hrs by LC-MS analysis; assay type: ADME, cell-based; details: human
[6] = Drug level in HEK293 cells cytosol at 2 uM after 18 hrs by LC-MS analysis; assay type: ADME, cell-based; details: human
[7] = test system: PBMC; assay: Immunostimulatory activity in human PBMC assessed as increase in TNF-alpha release at 2 uM after 18 hrs by flow cytometry; assay type: functional, cell-based
[8] = test system: PBMC; assay: Immunostimulatory activity in human PBMC assessed as increase in IL-6 release at 2 uM after 18 hrs by flow cytometry; assay type: functional, cell-based
[9] = test system: PBMC; assay: Immunostimulatory activity in human PBMC assessed as increase in IL-10 release at 2 uM after 18 hrs by flow cytometry; assay type: functional, cell-based
[10] = test system: PBMC; assay: Immunostimulatory activity in human PBMC assessed as increase in IL-10 release at 2 uM after 18 hrs in presence of LPS by flow cytometry relative to control; assay type: functional
[11] = test system: PBMC; assay: Immunostimulatory activity in human PBMC assessed as increase in TNF-alpha release at 2 uM after 18 hrs in presence of LPS by flow cytometry relative to control; assay type: functional
[12] = test system: PBMC; assay: Immunostimulatory activity in human PBMC assessed as increase in IL-6 release at 2 uM after 18 hrs in presence of LPS by flow cytometry relative to control; assay type: functional
[13] = test system: PBMC; assay: Immunostimulatory activity in human PBMC assessed as increase in IL-2 release at 2 uM after 18 hrs in presence of LPS by flow cytometry; assay type: functional, cell-based
[14] = test system: PBMC; assay: Immunostimulatory activity in human PBMC assessed as increase in IL-4 release at 2 uM after 18 hrs in presence of LPS by flow cytometry; assay type: functional, cell-based
[15] = test system: PBMC; assay: Immunostimulatory activity in human PBMC assessed as increase in IL-17A release at 2 uM after 18 hrs in presence of LPS by flow cytometry; assay type: functional, cell-based
[16] = test system: PBMC; assay: Immunostimulatory activity in human PBMC assessed as increase in IFNgamma release at 2 uM after 18 hrs in presence of LPS by flow cytometry; assay type: functional, cell-based
[17] = Pyrogenic activity in Atlantic horseshoe crab blood limulus amebocyte lysate by bacterial endotoxin test; assay type: ADME; details: limulus polyphemus
[18] = test system: Mus musculus; assay: Immunoadjuvant activity in ovalbumin-induced NIH/OlaHsd mouse model of adjuvancy assessed as induction of ovalbumin-specific humoral immune response by measuring increase in anti-OVA IgG level in serum at 200 ug, sc using liposome encapsulated compound measured on day 7 post second booster by ELISA; assay type: functional, organism-based

Structure (SMILES): CCOC(=O)CC[C@@H](NC(=O)[C@@H](NC(=O)CNC(=O)/C=C/c1ccc(O)c(OC)c1)C(C)C)C(=O)OCC
- Retention_time [1]: 3.53 min
- viability at 18 h, 20 µM [2]: > 80%
- Activity [3]: inactive
- Stability [4]: Stable
- Drug uptake [5]: 40%
- Drug uptake [6]: 0.13 µM
- Activity [7]: Active
- Activity [8]: Active
- Activity [9]: Active
- fold change (FC) [10]: 5
- fold change (FC) [11]: 3
- fold change (FC) [12]: 4
- Activity [13]: Active
- Activity [14]: Active
- Activity [15]: Active
- Activity [16]: Active
- Activity [17]: Non-Toxic
- Activity [18]: Active
